Assay results from ChEMBL document CHEMBL1158034, “Synthesis and cytotoxicity of racemic isodeoxypodophyllotoxin analogues with isoprene-derived side chains” (J Nat Prod, 2006).

What was measured:
Assay type in all cases: functional, cell-based
KB = assay: Cytotoxicity against human KB cells after 72 hrs by MTT assay
[1] = Cytotoxicity against human BEL-7404 cells after 72 hrs by MTT assay; conditions: BEL-7404, 72 h
A549 = assay: Cytotoxicity against human A549 cells after 72 hrs by MTT assay; conditions: A549, 72 h
HL-60 = assay: Cytotoxicity against human HL-60 cells after 72 hrs by MTT assay; conditions: HL-60, 72 h

## COc1cc2c(cc1OC)[C@H](c1ccc(OC)c(OC/C=C(\C)CC/C=C(\C)CCC=C(C)C)c1)[C@H]1C(=O)OC[C@@H]1C2 (racemic)
KB
  IC50: 3.76 µM
[1]
  IC50: 5.63 µM

## COC(=O)[C@H]1[C@H](CO)Cc2cc(OC)c(OC)c(OC)c2[C@@H]1c1ccc(O)c(OC)c1 (racemic)
A549
  IC50: 14.5 µM

## COc1cc2c(cc1OC)[C@H](c1ccc(OCc3ccccc3)c(OC)c1)[C@H]1C(=O)OC[C@@H]1C2 (racemic)
KB
  IC50: 2.65 µM
[1]
  IC50: 14.8 µM

## COC(=O)[C@H]1[C@H](CO)Cc2cc(OC)c(OC)c(OC)c2[C@@H]1c1ccc(OC/C=C(\C)CCC=C(C)C)c(OC)c1 (racemic)
HL-60
  IC50: 4.54 µM

## COc1cc([C@@H]2c3cc4c(cc3[C@@H](O[C@@H]3O[C@@H]5CO[C@@H](C)O[C@H]5[C@H](O)[C@H]3O)[C@H]3COC(=O)[C@H]23)OCO4)cc(OC)c1O [ETOPOSIDE]
HL-60
  IC50: 10.5 µM
